Entries after “also recorded” stand apart in the source; their conditions may differ.
Columns and labels:
[1] = test system: pNDRG1 (T346); experiment: Western blot of NDRG1 phosphorylation (T346); format: cell-based; details: 4 h
Procedure: A) SGK1 mRNA levels in breast cancer cell lines sensitive or resistant to BYL719 (n=27). B) SGK1 mRNA levels in PIK3CA-mutant breast cancer cell lines sensitive or resistant to BYL719. C) Western blot of SGK1, SGK2, SGK3 and phosphorylated NDRG1 in a panel of PIK3CA—mutant breast cancer cell lines sensitive or resistant to BYL719. D) Western blot for NDRG1 and phosphorylated NDRG1 (T346) in BYL719-sensitive and -resistant breast cancer cell lines treated with BYL719 (1 μM) for 4 h. […] P values are calculated using Student's t-test. Error bars are ±SEM.
A) Dose-response curves from MDA-MB-361 cells transduced with pLenti7.3-LacZ or pLenti7.3-SGK1 (Δ60, S422D) treated with increasing concentrations of BYL719 for 6 days. B) Western blot analysis of LacZ and SGK1 MDA-MB-361 cells treated with BYL719 (1 μM) for 4 h. […] The DFG motif amino acids are indicated (D240, F241, G242). […] Hydrogen bonds are shown as dotted lines. […] L) IHC analysis of tumors from K collected at the end of the experiment. M) Top panel: growth curves of HCC1954 cells stably expressing doxycycline-inducible control (REN) or SGK1 knockdown treated with increasing concentrations of BYL719 for 6 days. Bottom panel: Western blot analysis of GFP-sorted control (REN) and SGK1 shRNA cells treated with BYL719 (1 μM) for 4 h. P values are calculated using Student's t-test. Error bars are ±SEM.
Then, membranes were probed using specific antibodies.

[2] = test system: FOXO3; experiment: FOXO-dependent transcription (microarray, RT-PCR, immunofluorescence, luciferase reporter, ChIP-qPCR); format: cell-based; details: HCC1954 and JIMT1, 1 μM, 4 h, vs DMSO
Procedure: B) Enrichment plot for the FOXO3 signature in HCC1954 cells. C) Heat map showing changes in previously described FOXO3 targets.
G) Luciferase reporter assay in HCC1954 cells stably transduced with the FOXO consensus motif reporter construct treated as indicated for 12 h (RLU, Relative light units). H) ChIP-qPCR assay of FOXO3A binding at TNFSF10A and IRS2 promoters in HCC1954 cells treated as indicated in F. P values are calculated using Student's t-test. Error bars are ±SEM.
RNA was isolated from cells using the QIAGEN RNeasy kit. For microarray analysis, biotinylated cRNA was prepared according to the standard Illumina protocol. After fragmentation, cRNA was hybridized with Illumina GX HT12 Human Array. Slides were washed and stained in the Illumina instrument following manufactured protocol. Slides were scanned using Illumina Bead Array Reader. Data were analyzed using GenomeStudio software. No normalization and background correction are performed first, then quantile normalization and background correction are done.
For mRNA expression analysis, cDNA was prepared using the Bio-Rad cDNA synthesis kit. cDNA was amplified by quantitative PCR using SYBR Select Master Mix (Applied Biosystems) in the ViiA 7 Real-Time PCR system. All reactions were carried out in triplicate.
Lysed cells were sonicated on ice to yield 200-800 bp DNA fragments. […]

[3] = test system: cap-dependent translation; experiment: m7GTP pull down, cap-dependent translation; format: cell-based; details: HCC1954 shPDK1, BYL719 1 μM, 4 h
Procedure: 2 million cells were seeded in 10 cm plates and treated accordingly 12 hr after seeding. Lysates were prepared using m7GTP pull down buffer (50 mM Hepes, pH 7.4, 75 mM NaCl, 10 mM MgCl2, 1 mM DTT, 8 mM EGTA, 10 mM β-glycerophosphate, 0.5 mM Na3VO4, 0.5% Triton X-100) supplemented with protease and phosphatase inhibitors. Lysates were centrifuged at 13000 rpm for 10 min and supernatants were rotated for 2 h at 4° C. with 7-methyl-GTP-Sepharose or control Sepharose beads (Jena Bioscience). Beads were washed three times with m^7GTP pull down buffer, resuspended in Laemmli buffer, and associated proteins were detected by Western blot.

[4] = test system: mTORC1; experiment: Western blot of mTORC1 signaling (pS6K, pS6, p4EBP1); format: cell-based
Text: For western blot analysis proteins were extracted in RIPA buffer supplemented with protease and phosphatase inhibitors (Roche). Protein lysates were separated using SDS-PAGE gels and transferred to a PVDF membrane. Then, membranes were probed using specific antibodies. PDK1, pAKT (S473), pAKT (T308), pS6K (T389), pS6 (S240/4), pS6 (235/6), p4EBP1 (S65), PARP, Actin, pRSK (S227), cleaved Caspase 3, pFOXO1/3 (T24/T32), SGK1, SGK2, SGK3, pNDRG1 (T346), NDRG1, Flag, HA, and phospho-RXRXX(S/T) (SEQ ID NO: 1) were from Cell Signaling Technology (CST).

[5] = test system: SGK1; experiment: kinase activity and phosphorylation of immunoprecipitated endogenous SGK1; format: cell-based; details: HCC1954, 4 hr, Crosstide substrate
Procedure: In vitro kinase activity of endogenous SGK1 and AKT was assayed by measuring [γ-32P] ATP incorporation into Crosstide substrate peptide [[…]] […] SGK1 and AKT were immunoprecipitated from HCC1954 cell line 4 hr after treatment. Immunoprecipitates were washed once with lysis buffer containing 500 mM NaCl, once with lysis buffer, and twice with Buffer A (50 mM Tris pH 7.5, 0.1 mM EGTA). Reactions were carried out in 40 μL total volume containing 0.1 mM [γ-32P] ATP (400-1000 cpm/pmol), 10 mM magnesium acetate, and 30 μM Crosstide peptide. Reactions were terminated by adding 10 μL […] EDTA. 40 μL of the reaction mix was spotted on P81 paper, which was immediately immersed into 50 mM ortophosphoric acid and washed several times. Papers were rinsed in acetone and air dried. Radioactivity was quantified by Cerenkov counting. One unit of enzyme activity was defined as the amount of enzyme that catalyzes incorporation of 1 nmol of [γ-32P] ATP into the substrate over one minute.

[6] = test system: PIK3CA-mutant breast cancer; experiment: clinical trial NCT01870505, PIK3CA-mutant breast cancer; format: in vivo, patients; details: with an aromatase inhibitor
Text: We then explored whether SGK1 and pNDRG1 expression correlate with clinical outcome to PI3Kα inhibition by analyzing PIK3CA-mutant breast cancer samples from 18 patients treated with BYL719 in combination with an aromatase inhibitor (NCT01870505). Three of these tumors expressed high levels of SGK1 mRNA while the remaining 15 had medium/low levels of SGK1 mRNA. […] This was in agreement with the longer time to disease progression of this subset of patients when compared to the SGK1-high/pNDRG1-positive cohort (FIG. 4H, I).
The MSKCC Institutional Review Board approved the study. Pre-treatment FFPE blocks from patients treated with the PI3Kα inhibitor BYL719 enrolled in the clinical trial NCT01870505 conducted at MSKCC were used for IHC. Informed consent was obtained from all subjects.
For the study of patients treated with the PI3Kα inhibitor BYL719, pre-treatment biopsy FFPE blocks from patients enrolled in the clinical trial NCT01870505 conducted at MSKCC were used for IHC as described above. For the selection of the patients, PIK3CA and other tumor genomic drivers were analyzed using MSK-IMPACT (Cheng et al., 2015). […] SGK1 mRNA levels were determined using next-generation sequencing (NGS) and the expression results were presented as raw Reads Per Kilobase of transcript per Million mapped reads (RPKM). Mean and standard deviation (SD) was calculated across all the samples with available NGS data and overexpression of SGK1 was called for the samples with mRNA levels greater than mean+1SD. For 6 samples, RNA quality and quantity was not optimal for NGS. In these cases, SGK1 mRNA levels were determined using RT-qPCR as described above. RNA from low expressing (T47D) and high expressing (HCC1954) cell lines were used as positive control and absolute mRNA levels were quantified.

With `Cc1nc(NC(=O)N2CCC[C@H]2C(N)=O)sc1-c1ccnc(C(C)(C)C(F)(F)F)c1` [BYL719] the “NDRG1 phosphorylation (T346)” value ([1]; BYL719-resistant cell lines) was “maintain NDRG1 phosphorylation”, the “NDRG1 phosphorylation (T346)” value ([1]; BYL719-sensitive cell lines, 1 μM) was “decreased NDRG1 phosphorylation at T346” and the “changes in gene expression / transcriptomic profile” value [2] was “modest”. For the same compound, the “cap-dependent translation in PDK1 knockdown cells” value [3] was “decreased cap-dependent translation”, the mTORC1 signaling ([4]; BYL719-resistant cells (HCC1954, JIMT1), 4 h, BYL719 1 μM, GSK2334470 1 μM, SGK1-inh 10 μM) was “not downstream mTORC1 targets; also recorded: not mTORC1 signaling” and the “phosphorylation of mTORC1 downstream targets in PDK1 knockdown cells” value ([4]; HCC1954 and JIMT1 shPDK1, BYL719 1 μM, 4 h) was “decreased the phosphorylation of the mTORC1 downstream targets”. For the same compound, the mTORC1 signaling ([4]; HCT116 PDPK1−/− cells) was “inhibits mTORC1”, the mTORC1 signaling ([4]; HCT116 parental cells) was “does not decrease mTORC1 signaling” and the mTORC1 signaling ([4]; MDA-MB-361 cells overexpressing SGK1, 1 μM, 4 h) was “maintained mTORC1 signaling”. The “AKT phosphorylation and mTORC1 signaling” value ([4]; MDA-MB-361 parental cells, 1 μM, 4 h) was “decreased both AKT phosphorylation and mTORC1 signaling”, the “endogenous SGK1 kinase activity” value [5] was “remains active” and the “clinical response by RECIST” value ([6]; patients with pNDRG1-negative tumors) was “three had partial responses and eight had stable disease”. For the same compound, the clinical response ([6]; three patients, tumors with high SGK1, pNDRG1 positive) was “did not respond to therapy” and the clinical response ([6]; two patients, medium/low SGK1, pNDRG1 positive) was “rapidly progressed”.

— US11696924B2, “Combination therapy using PDK1 and PI3K inhibitors” (MEMORIAL SLOAN-KETTERING CANCER CENTER, priority 2015, dated 2023)
